Laboratory results published in BindingDB's records for doi:10.1016/s0960-894x(99)00034-7 (University of Tokyo, 1999).
pIC50: −log10 of the molar value.

Target: Dipeptidyl peptidase 4 (Homo sapiens, UniProt P27487)
Assay: Inhibitory activity against Dipeptidylpeptidase IV (DPP IV) in human acute lymphoblastic leukemia MOLT-4 cell line

Dipeptidyl peptidase 4, sequence (P27487 whole entry): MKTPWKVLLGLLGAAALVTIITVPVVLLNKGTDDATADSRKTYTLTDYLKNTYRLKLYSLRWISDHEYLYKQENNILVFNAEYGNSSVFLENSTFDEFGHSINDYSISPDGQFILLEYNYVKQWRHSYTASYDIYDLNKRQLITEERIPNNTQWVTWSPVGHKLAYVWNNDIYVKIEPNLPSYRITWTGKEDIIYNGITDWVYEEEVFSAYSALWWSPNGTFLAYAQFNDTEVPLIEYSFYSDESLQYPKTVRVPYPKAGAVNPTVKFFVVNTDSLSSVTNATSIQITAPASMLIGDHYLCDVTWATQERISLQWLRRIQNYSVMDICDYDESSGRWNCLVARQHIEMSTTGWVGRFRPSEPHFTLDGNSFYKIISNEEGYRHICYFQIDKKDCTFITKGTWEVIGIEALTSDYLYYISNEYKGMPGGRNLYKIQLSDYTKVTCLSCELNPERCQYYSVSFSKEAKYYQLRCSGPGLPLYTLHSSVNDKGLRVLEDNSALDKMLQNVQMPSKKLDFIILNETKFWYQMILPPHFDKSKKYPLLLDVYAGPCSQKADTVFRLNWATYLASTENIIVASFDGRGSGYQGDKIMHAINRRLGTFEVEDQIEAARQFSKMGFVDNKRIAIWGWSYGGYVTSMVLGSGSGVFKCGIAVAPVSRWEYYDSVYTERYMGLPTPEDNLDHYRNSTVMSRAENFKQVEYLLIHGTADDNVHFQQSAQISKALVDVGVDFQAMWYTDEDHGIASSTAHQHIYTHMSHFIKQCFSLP

pIC50: < 3.49
Compound: CC(C)C[C@H](NC(=O)[C@@H](O)[C@H](N)Cc1ccccc1)C(=O)O
